For the first assay, the system named is human σ1 receptor and human μ-opioid receptor. The experiment in a line: Human σ1 receptor ([3H](+)-pentazocine) and human μ-opioid receptor ([3H]-DAMGO) radioligand assays, reported as one combined score. In kind it is binding. On the set-up: key to σ1 and μ binding: +: Both Ki-μ and Ki-σ1>=1000 nM; ++: One Ki<1000 nM while the other Ki is >=1000 nM; +++: Both Ki-μ and Ki-σ1<1000 nM; ++++: Both Ki-μ and Ki-σ1<500 nM. The conditions noted are these: combined class for Ki-σ1 (transfected HEK-293 membranes) and Ki-μ (transfected CHO-K1 cell membranes). The method, then:
Human σ1 Receptor Radioligand Assay
To investigate binding properties of test compounds to human σ1 receptor, transfected HEK-293 membranes and [^3H](+)-pentazocine (Perkin Elmer, NET-1056), as the radioligand, were used. The assay was carried out with 7 μg of membrane suspension, 5 nM of [^3H](+)-pentazocine in either absence or presence of either buffer or 10 μM Haloperidol for total and non-specific binding, respectively. Binding buffer contained Tris-HCl 50 mM at pH 8. Plates were incubated at 37° C. for 120 minutes. After the incubation period, the reaction mix was then transferred to MultiScreen HTS, FC plates (Millipore), filtered and plates were washed 3 times with ice-cold 10 mM TrisHCL (pH7.4). Filters were dried and counted at approximately 40% efficiency in a MicroBeta scintillation counter (Perkin-Elmer) using EcoScint liquid scintillation cocktail.
Preferably, transfected HEK-293 membranes (7 μg) were incubated with 5 nM of [^3H](+)-pentazocine in assay buffer containing Tris-HCl 50 mM at pH 8. NBS (non-specific binding) was measured by adding 10 μM Haloperidol. The binding of the test compound was measured at five different concentrations. Plates were incubated at 37° C. for 120 minutes. After the incubation period, the reaction mix was then transferred to MultiScreen HTS, FC plates (Millipore), filtered and plates were washed 3 times with ice-cold 10 mM TrisHCL (pH7.4). Filters were dried and counted at approximately 40% efficiency in a MicroBeta scintillation counter (Perkin-Elmer) using EcoScint liquid scintillation cocktail.
Human μ-Opioid Receptor Radioligand Assay
To investigate binding properties of test compounds to human μ-opioid receptor, transfected CHO-K1 cell membranes and [^3H]-DAMGO (Perkin Elmer, ES-542-C), as the radioligand, were used. The assay was carried out with 20 μg of membrane suspension, 1 nM of [^3H]-DAMGO in either absence or presence of either buffer or 10 μM Naloxone for total and non-specific binding, respectively. Binding buffer contained Tris-HCl 50 mM, MgCl2 5 mM at pH 7.4. Plates were incubated at 27° C. for 60 minutes. After the incubation period, the reaction mix was then transferred to MultiScreen HTS, FC plates (Millipore), filtered and plates were washed 3 times with ice-cold 10 mM TrisHCL (pH 7.4). Filters were dried and counted at approximately 40% efficiency in a MicroBeta scintillation counter (Perkin-Elmer) using EcoScint liquid scintillation cocktail.
Preferably, transfected CHO-K1 cell membranes (20 μg) were incubated with 1 nM of [^3H]-DAMGO in assay buffer containing Tris-HCl 50 mM, MgCl2 5 mM at pH 7.4. NBS (non-specific binding) was measured by adding 10 μM Naloxone. The binding of the test compound was measured at five different concentrations. Plates were incubated at 27° C. for 60 minutes. After the incubation period, the reaction mix was then transferred to MultiScreen HTS, FC plates (Millipore), filtered and plates were washed 3 times with ice-cold 10 mM TrisHCL (pH 7.4). Filters were dried and counted at approximately 40% efficiency in a MicroBeta scintillation counter (Perkin-Elmer) using EcoScint liquid scintillation cocktail.
Turning to `CCC(=O)N(CC1(CCCN(C)CC(C)C)CCOCC1)c1cccc(C(F)(F)F)n1` [Example 8, N-((4-(3-(isobutyl(methyl)amino)propyl)tetrahydro-2H-pyran-4-yl)methyl)-N-(6-(trifluoromethyl)pyridin-2-yl)propionamide], the “σ1 and μ binding” value is recorded as “++”.
As for `CCC(=O)N(CC1(N(C)CCN(C)Cc2ccccc2)CCOCC1)c1cccc(C(F)(F)F)n1` [Example 2, N-((4-((2-(benzyl(methyl)amino)ethyl)(methyl)amino)tetrahydro-2H-pyran-4-yl)methyl)-N-(6-(trifluoromethyl)pyridin-2-yl)propionamide], the “σ1 and μ binding” value is given as “++”.
Still for that read-out and setting: then `CCC(=O)N(CC1(CCCNCC(C)C)CCOCC1)c1cccc(C(F)(F)F)n1` [Example 5, N-((4-(3-(Isobutylamino)propyl)tetrahydro-2H-pyran-4-yl)methyl)-N-(6-(trifluoromethyl)pyridin-2-yl)propionamide], with “++”; and `CCOCCN(C)CCN(C)C1(CN(C(=O)CC)c2cccc(C(F)(F)F)n2)CCOCC1` [Example 4, N-((4-((2-((2-Ethoxyethyl)(methyl)amino)ethyl)(methyl)amino)tetrahydro-2H-pyran-4-yl)methyl)-N-(6-(trifluoromethyl)pyridin-2-yl)propionamide], with “++”; and `CCC(=O)N(CC1(N(C)CCNCC(C)C)CCOCC1)c1cccc(C(F)(F)F)n1` [Example 3, N-((4-((2-(Isobutylamino)ethyl)(methyl)amino)tetrahydro-2H-pyran-4-yl)methyl)-N-(6-(trifluoromethyl)pyridin-2-yl)propionamide], with “++”.

Still in this assay, the particulars now being: combined class for Ki-σ1 (transfected HEK-293 membranes) and Ki-μ (transfected CHO-K1 cell membranes); read-out: σ1 and μ binding.
As for `CCC(=O)N(CC1(N(C)CCN(Cc2ccccc2)CC(C)C)CCOCC1)c1cccc(C(F)(F)F)n1` [Example 1, N-((4-((2-(Benzyl(isobutyl)amino)ethyl)(methyl)amino)tetrahydro-2H-pyran-4-yl)methyl)-N-(6-(trifluoromethyl)pyridin-2-yl)propionamide], the Ki was at least 1 µM.
`CCC(=O)N(CC1(CCNCC(C)C)CCOCC1)c1cccc(C(F)(F)F)n1` [Example 7, N-((4-(2-(isobutylamino)ethyl)tetrahydro-2H-pyran-4-yl)methyl)-N-(6-(trifluoromethyl)pyridin-2-yl)propionamide]: the Ki is at least 1 µM.
Same read-out and setting: the same measure for `CCOCCN(C)CCCC1(CN(C(=O)CC)c2cccc(C(F)(F)F)n2)CCOCC1` [Example 9, N-((4-(3-((2-ethoxyethyl)(methyl)amino)propyl)tetrahydro-2H-pyran-4-yl)methyl)-N-(6-(trifluoromethyl)pyridin-2-yl)propionamide]: at least 1 µM; for `CCOCCNCCCC1(CN(C(=O)CC)c2cccc(C(F)(F)F)n2)CCOCC1` [Example 6, N-((4-(3-((2-ethoxyethyl)amino)propyl)tetrahydro-2H-pyran-4-yl)methyl)-N-(6-(trifluoromethyl)pyridin-2-yl)propionamide]: below 1 µM.
